# Data taken from ChEMBL document CHEMBL1201862, “PubChem BioAssay data set” (2004).
# Calls of active or inactive are those of the source.
# How the values were obtained:
# [1] = test system: Escherichia coli; assay: microbe, parasite or virus in culture
# [2] = target: T1, Carboxy-terminal domain RNA polymerase II polypeptide A small phosphatase 1 (Homo sapiens, UniProt Q9GZU7); assay: CTDSP1 inhibitors, concentration-response, biochemical, absorbance readout, ultra-high-throughput screen actives (AID 540297); format: functional
# T1 sequence (Q9GZU7 whole entry): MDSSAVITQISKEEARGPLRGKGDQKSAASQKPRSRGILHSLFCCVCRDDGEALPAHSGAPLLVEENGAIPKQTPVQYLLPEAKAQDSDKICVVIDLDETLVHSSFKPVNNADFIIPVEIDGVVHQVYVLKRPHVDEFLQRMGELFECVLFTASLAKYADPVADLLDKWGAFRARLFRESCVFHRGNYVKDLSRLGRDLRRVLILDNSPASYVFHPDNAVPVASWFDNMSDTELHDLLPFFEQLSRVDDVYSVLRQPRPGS
# [3] = target: Voltage-dependent T-type calcium channel subunit alpha-1H (Homo sapiens, UniProt O95180); format: functional;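 further: channel activity triggered by adding a high calcium stimulation buffer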
# Voltage-dependent T-type calcium channel subunit alpha-1H, sequence (O95180 whole entry): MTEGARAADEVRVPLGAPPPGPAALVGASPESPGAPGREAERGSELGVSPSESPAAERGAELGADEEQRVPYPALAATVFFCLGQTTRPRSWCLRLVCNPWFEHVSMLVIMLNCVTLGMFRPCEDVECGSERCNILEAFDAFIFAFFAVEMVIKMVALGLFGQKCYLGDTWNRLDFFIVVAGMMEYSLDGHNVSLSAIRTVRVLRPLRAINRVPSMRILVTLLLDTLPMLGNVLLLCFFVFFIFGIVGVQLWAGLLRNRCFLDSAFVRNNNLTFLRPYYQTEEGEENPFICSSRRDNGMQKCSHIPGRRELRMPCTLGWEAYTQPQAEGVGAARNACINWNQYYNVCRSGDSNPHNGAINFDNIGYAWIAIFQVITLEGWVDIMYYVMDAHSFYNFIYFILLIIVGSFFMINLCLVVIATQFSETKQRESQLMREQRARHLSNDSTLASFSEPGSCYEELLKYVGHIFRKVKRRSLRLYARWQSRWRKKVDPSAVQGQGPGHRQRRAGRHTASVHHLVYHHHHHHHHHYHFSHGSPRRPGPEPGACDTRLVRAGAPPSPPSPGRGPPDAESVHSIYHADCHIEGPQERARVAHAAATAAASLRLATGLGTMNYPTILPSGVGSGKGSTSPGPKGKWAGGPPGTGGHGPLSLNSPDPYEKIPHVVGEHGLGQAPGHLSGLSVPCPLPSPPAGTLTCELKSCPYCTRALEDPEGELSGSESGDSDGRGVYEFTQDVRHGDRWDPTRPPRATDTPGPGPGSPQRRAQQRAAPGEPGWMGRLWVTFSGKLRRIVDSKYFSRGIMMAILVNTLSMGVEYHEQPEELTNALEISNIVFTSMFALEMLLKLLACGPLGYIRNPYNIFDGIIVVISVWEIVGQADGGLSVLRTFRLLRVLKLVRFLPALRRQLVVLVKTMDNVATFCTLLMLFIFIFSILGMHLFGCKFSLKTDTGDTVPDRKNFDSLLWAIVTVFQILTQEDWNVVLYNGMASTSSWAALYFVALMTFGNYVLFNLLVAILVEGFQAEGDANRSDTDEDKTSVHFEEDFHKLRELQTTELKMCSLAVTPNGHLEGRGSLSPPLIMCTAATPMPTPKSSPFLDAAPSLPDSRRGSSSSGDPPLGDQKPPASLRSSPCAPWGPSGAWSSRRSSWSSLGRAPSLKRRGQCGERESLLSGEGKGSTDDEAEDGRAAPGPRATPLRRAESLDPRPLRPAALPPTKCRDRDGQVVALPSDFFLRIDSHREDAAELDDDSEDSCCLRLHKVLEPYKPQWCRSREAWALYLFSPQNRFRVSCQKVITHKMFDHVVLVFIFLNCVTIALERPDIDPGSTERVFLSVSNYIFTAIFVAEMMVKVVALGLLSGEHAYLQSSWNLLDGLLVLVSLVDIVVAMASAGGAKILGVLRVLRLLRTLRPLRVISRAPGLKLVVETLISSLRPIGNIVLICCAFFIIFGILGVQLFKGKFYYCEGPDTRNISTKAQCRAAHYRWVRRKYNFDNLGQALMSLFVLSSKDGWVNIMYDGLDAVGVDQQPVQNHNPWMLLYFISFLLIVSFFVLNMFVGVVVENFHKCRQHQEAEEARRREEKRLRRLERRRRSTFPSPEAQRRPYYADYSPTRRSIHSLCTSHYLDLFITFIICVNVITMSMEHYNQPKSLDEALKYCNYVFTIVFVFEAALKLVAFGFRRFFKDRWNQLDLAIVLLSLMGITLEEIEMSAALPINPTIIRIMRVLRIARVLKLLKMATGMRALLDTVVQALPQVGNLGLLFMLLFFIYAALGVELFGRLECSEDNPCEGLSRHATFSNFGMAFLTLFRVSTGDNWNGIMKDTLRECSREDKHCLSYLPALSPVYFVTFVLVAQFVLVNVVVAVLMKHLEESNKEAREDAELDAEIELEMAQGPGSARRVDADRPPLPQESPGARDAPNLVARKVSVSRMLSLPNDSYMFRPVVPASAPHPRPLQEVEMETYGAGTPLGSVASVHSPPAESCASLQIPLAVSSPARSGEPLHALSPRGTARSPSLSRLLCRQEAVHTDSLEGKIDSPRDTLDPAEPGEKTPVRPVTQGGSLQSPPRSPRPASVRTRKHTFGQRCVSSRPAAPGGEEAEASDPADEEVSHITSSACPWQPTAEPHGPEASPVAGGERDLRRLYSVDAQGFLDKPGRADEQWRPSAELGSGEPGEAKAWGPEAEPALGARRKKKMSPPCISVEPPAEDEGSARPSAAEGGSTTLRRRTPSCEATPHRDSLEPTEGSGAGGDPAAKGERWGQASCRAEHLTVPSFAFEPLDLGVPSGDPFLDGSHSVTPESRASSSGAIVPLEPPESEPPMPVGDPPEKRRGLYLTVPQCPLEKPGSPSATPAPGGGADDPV
# [4] = viability of PTEN-deleted HCT116 cells – cell-based, HCT116 PTEN knockout, dose response (AID 1047); format: functional;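 further: HCT116 colon tumor cells with PTEN knocked out; cells exposed to compound for 60 hours before readout; potency for loss of cell viability measured by luminescence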
# [5] = viability of HCT116 lacking mutant beta-catenin – cell-based, human colon tumor, dose response (AID 1045); format: functional;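 further: HCT116 colon tumor cells with beta catenin knocked out; cells exposed to compound for 60 hours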
# [6] = target: T2, High affinity choline transporter 1 (Homo sapiens, UniProt Q9GZV3); assay: human choline transporter blockers, potency – cell-based, 5-point CRC, membrane potential dye, dose response (AID 504840); format: functional
# T2 sequence (Q9GZV3 whole entry): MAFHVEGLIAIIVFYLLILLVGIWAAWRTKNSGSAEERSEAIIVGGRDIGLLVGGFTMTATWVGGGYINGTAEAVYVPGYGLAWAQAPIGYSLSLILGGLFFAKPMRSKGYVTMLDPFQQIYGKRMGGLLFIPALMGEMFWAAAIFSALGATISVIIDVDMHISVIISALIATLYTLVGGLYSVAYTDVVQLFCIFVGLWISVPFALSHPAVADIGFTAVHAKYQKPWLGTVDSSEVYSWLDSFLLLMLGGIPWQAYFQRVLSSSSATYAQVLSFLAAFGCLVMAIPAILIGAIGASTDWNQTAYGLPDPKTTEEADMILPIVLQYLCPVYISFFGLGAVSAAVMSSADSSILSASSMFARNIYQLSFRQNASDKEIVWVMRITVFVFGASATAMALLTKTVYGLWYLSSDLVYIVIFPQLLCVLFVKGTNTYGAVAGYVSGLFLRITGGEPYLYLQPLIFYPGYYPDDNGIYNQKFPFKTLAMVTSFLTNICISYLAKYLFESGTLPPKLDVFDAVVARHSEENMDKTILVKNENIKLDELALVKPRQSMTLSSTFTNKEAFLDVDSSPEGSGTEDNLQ
# [7] = target: Genome polyprotein (dengue virus type 2, UniProt P29990); assay: flavivirus cap methylation enzyme inhibition – biochemical, confirmation dose response, primary screen (AID 588689); format: functional
# Genome polyprotein, sequence (P29990 2492-3391 limits assumed): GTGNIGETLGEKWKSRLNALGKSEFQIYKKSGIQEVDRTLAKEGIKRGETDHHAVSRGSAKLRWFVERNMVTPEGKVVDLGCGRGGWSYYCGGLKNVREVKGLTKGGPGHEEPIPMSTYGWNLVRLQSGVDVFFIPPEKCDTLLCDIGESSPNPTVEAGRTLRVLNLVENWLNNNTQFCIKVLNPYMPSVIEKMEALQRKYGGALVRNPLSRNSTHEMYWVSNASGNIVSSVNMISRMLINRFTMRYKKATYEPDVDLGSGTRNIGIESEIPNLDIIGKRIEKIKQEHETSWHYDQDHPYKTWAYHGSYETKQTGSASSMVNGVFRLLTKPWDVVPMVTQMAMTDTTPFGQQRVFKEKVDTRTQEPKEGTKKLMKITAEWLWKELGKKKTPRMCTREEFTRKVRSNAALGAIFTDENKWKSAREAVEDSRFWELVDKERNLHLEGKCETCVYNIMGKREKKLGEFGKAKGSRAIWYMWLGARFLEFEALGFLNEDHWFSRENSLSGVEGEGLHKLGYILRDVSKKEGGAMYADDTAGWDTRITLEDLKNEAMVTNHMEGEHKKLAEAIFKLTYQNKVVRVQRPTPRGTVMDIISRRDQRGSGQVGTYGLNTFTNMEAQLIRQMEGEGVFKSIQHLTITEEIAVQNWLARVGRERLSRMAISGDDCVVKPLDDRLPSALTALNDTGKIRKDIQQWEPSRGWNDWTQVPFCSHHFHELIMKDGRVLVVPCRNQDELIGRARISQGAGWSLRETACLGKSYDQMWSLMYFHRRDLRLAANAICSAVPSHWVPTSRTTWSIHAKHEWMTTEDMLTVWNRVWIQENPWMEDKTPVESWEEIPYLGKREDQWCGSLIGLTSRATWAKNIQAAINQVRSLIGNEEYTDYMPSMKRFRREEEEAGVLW
# [8] = THP-1 cell cytotoxicity, dose response, cytotoxicity control for non-replicating M. tuberculosis project (AID 489025); format: functional
# [9] = target: T3, Short transient receptor potential channel 4 (Mus musculus, UniProt Q9QUQ5); assay: block of DAMGO-driven TRPC4 calcium entry – cell-based, HEK293 TRPC4/mu-opioid, Fluo-4 calcium, dose response (AID 434942); format: functional;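 further: potency of inhibitors blocking the TRPC4 calcium response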
# T3 sequence (Q9QUQ5 whole entry): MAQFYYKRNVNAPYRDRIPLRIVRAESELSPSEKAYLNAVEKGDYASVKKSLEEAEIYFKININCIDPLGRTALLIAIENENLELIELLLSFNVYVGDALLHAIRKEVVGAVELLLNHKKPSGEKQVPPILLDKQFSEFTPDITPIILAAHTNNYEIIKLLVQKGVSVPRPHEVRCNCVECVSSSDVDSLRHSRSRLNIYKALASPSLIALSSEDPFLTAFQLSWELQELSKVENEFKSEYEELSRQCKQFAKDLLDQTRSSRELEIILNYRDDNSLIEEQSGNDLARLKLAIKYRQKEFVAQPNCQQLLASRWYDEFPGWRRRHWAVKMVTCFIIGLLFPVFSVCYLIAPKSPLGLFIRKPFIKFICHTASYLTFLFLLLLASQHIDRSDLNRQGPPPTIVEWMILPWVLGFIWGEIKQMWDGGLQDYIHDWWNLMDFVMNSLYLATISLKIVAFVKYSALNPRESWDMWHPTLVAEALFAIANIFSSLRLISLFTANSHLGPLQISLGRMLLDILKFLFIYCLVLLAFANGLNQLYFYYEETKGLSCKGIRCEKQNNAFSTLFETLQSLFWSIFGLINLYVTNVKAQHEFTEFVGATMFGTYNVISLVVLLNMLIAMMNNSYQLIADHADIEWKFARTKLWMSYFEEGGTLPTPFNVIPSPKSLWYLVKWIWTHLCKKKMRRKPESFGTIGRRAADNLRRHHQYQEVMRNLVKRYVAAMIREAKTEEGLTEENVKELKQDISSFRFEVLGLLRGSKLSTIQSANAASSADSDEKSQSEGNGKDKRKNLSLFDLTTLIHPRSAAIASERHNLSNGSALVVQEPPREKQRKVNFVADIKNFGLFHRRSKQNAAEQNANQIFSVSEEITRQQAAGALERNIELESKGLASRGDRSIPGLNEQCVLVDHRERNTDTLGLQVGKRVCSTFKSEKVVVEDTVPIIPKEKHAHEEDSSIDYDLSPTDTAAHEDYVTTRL
# [10] = target: T4, Heat shock factor protein 1 (Mus musculus, UniProt P38532); assay: enhancement of HSF1-driven luciferase signal – cell-based, NIH3T3, luminescence, dose retest, confirmation (AID 435004); format: functional;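 further: stress induced by proteasome inhibitor MG132 added 30 min after compound; luciferase reporter driven by HSF1 response element in NIH3T3 cells; actives raise luminescence as potentiators of the MG132 stress response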
# T4 sequence (P38532 whole entry): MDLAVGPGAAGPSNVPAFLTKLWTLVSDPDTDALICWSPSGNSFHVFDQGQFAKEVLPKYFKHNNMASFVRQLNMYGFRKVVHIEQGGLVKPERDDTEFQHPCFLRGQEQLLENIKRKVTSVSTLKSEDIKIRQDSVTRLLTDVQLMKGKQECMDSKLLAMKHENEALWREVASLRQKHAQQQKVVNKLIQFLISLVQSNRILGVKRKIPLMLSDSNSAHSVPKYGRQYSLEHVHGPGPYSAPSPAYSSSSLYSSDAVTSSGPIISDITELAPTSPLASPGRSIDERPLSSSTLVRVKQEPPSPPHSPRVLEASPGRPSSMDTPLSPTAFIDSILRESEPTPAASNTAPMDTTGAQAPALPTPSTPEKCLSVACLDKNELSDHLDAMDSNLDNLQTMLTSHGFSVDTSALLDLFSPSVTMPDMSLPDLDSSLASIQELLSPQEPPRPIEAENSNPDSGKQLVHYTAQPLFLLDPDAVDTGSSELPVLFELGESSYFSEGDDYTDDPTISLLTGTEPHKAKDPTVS
# [11] = target: T5, Hexokinase (Trypanosoma brucei, UniProt Q38C41); assay: Confirmation assay for inhibitors of Trypanosoma brucei hexokinase 1-Analogue-first series. [Related pubchem assays (depositor defined):AID1430, AID1632, AID2516, AID2560, AID2579, AID2600, AID449725, AID492951]; format: functional
# T5 sequence (Q38C41 whole entry): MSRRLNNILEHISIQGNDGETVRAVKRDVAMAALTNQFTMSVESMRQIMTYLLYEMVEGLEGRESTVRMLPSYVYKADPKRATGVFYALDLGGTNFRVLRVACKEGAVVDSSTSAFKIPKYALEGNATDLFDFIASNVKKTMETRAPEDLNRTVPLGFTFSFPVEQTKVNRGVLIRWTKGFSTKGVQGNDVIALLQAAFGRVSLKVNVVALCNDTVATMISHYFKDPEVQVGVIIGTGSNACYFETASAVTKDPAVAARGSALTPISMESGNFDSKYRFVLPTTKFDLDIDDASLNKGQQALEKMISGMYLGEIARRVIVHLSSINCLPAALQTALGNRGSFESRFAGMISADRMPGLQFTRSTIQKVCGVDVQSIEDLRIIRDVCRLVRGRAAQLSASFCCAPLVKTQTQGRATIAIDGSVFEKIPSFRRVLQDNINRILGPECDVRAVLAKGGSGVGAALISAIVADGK
# [12] = test system: Streptococcus sp. 'group A'; assay: Streptococcus pyogenes SK(-)GAS viability under kanamycin – luminescence, BacTiterGlo, confirmation, counter-screen for streptokinase expression inhibitor project, dose response (AID 1900); format: functional, organism-based
# [13] = test system: Streptococcus; assay: GAS UMAA2166 growth inhibition – luminescence, BacTiterGlo, counter-screen for streptokinase expression inhibitor project, dose response (AID 1915); format: functional, organism-based;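 further: potency for reduction of bacterial viability or growth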
# [14] = target: T6, Streptokinase A (Streptococcus pyogenes serotype M1, UniProt P10520); assay: viability-normalized secreted streptokinase activity reduction – plasminogen activation absorbance, OD405, dose response (AID 1914); format: functional, Streptococcus pyogenes M1 GAS;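 further: secreted streptokinase activity via plasminogen activation per viability signal from cell pellet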
# T6 sequence (P10520 whole entry): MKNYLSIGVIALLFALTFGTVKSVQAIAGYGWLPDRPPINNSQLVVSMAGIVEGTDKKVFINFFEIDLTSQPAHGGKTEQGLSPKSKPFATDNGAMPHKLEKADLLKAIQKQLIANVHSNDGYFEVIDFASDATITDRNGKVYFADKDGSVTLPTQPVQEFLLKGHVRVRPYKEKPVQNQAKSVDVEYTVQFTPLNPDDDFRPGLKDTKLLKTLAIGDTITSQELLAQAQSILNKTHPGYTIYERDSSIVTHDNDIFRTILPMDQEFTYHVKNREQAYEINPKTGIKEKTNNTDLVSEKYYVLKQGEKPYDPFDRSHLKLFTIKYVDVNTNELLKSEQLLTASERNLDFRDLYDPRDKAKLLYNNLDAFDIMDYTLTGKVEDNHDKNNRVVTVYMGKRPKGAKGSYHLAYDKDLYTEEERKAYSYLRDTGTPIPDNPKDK
# [15] = cells
# [16] = viability of uninfected HEp-2 cells – cell-based, HTS, cytotoxicity control for RSV inhibitor project, dose response (AID 2410); format: functional; conditions: human respiratory syncytial virus
# [17] = target: Cytochrome P450 2C9 (Homo sapiens, UniProt P11712)
# Cytochrome P450 2C9, sequence (P11712 whole entry): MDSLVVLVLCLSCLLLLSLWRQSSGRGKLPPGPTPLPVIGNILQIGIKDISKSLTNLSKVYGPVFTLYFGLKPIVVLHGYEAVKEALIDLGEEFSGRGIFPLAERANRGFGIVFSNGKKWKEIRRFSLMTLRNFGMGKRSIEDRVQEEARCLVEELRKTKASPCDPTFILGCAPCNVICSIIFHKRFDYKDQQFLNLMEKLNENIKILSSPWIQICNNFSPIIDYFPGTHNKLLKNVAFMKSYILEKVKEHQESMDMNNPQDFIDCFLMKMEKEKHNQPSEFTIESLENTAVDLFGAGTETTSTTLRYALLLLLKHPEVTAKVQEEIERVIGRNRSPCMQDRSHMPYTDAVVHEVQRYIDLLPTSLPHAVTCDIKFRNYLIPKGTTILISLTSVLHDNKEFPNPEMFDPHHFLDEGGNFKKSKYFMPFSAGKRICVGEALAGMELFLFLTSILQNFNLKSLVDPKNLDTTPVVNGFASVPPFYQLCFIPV
compound,measurement,setting,value
Cc1ccccc1-c1nc(CN2CCC(C(=O)O)CC2)c(C)o1,AC50,[1],20.8 µM (active)
O=C(CSc1nnc(-c2ccncc2)n1-c1ccc(F)cc1)NC(=O)NCc1ccco1,IC50,[2],8.38 µM (active)
CCCC(NC(=O)Cc1c(C)c2cc3c(C)c(C)oc3c(C)c2oc1=O)C(=O)N[C@@H](Cc1ccccc1)C(=O)O (stereo partly drawn),IC50,[2],3.57 µM (active)
O=C(/C=C/c1ccc2c(c1)OCO2)NCCSCc1ccc(Cl)cc1Cl,EC50,[3],4.94 µM (active)
Cc1cc(Oc2nc3c(C)cccn3c(=O)c2/C=C(\C#N)S(=O)(=O)c2ccc(Cl)cc2)ccc1Cl,EC50,[4],7.18 µM (active)
same,EC50,[5],6.7 µM (active)
same,AC50,[1],28.9 µM (active)
Cc1ncoc1C(=O)Nc1ccc(Oc2ccccc2)cc1,IC50,[6],13.2 µM (active)
O=C(Nc1cccc([N+](=O)[O-])c1)Nc1cccc([N+](=O)[O-])c1,IC50,[2],8.46 µM (active)
CCCN(CCC)c1nc(O)nc(N(CCC)CCC)n1,IC50,[6],3.63 µM (active)
O=C(O)c1ccc(Cl)c(S(=O)(=O)Nc2ccccc2C(=O)Nc2ccc(Cl)cc2)c1,IC50,[7],34 µM (active)
Cc1cc(C)nc(SCc2nnc(SCC(=O)Nc3ccc(C)c(C)c3)n2Cc2ccco2)n1,EC50,[3],4.05 µM (active)
Oc1ccccc1Nc1nc(NCC2CCCO2)c2ccccc2n1 (stereo not drawn),CC50,[8],30.4 µM (active)
CC(C)(C)Cc1nc2ccccc2n1CCc1ccccc1,EC50,[3],7.13 µM (active)
same,EC50,[9],1.06 µM (active)
same,EC50,[10],> 260 µM (inactive)
CCOc1cc(CNc2ccccc2)cc(Br)c1OCC(=O)NC(C)(C)C,EC50,[3],15.4 µM (active)
CCCC(C(=O)O)N1C(=O)/C(=C2\C(=O)N(C)c3ccccc32)SC1=S (stereo not drawn),IC50,[7],30.4 µM (active)
COc1cc2c(cc1NC(=O)COC(=O)[C@@H](NC(=O)c1ccccc1)C(C)C)oc1ccccc12,AC50,[1],33.8 µM (active)
COC(=O)c1ccc(N2NC(=O)/C(=C/c3cc(OC)c(OC)c(OC)c3)C2=O)cc1,IC50,[7],46.6 µM (active)
Cc1ccc(C)c(N2CCN(C(=O)Cc3cn(C)c4ccccc34)CC2)c1,EC50,[3],9.19 µM (active)
COc1ccc(C(=O)Nc2cc(Cl)ccc2-c2nnn[nH]2)cc1,IC50,[11],10.9 µM (active)
COc1ccc(C(=O)Nc2cc(Br)ccc2C(=O)O)cc1,IC50,[11],6.94 µM (active)
COc1ccc2c(c1)CN(c1cc(Cl)ccc1C(=O)O)C2=O,IC50,[11],> 25 µM (inactive)
O=C(CCS(=O)(=O)c1ccc(Br)cc1)NC1CCCCCC1,IC50,[2],7.42 µM (active)
O=C(Nc1cc(Cl)ccc1C(=O)O)c1cocn1,IC50,[11],> 25 µM (inactive)
COc1ccc(NC(=O)c2ccccc2SCc2ccccc2)cc1,IC50,[11],> 25 µM (inactive)
Cc1ccc(OCCSC2=NN2c2cc(C)nc(N)n2)cc1,IC50,[6],14.8 µM (active)
Nc1sc(-c2ccccc2)cc1C(=O)N/N=C/c1ccc(Cl)cc1,EC50,[12],3.46 µM (active)
same,EC50,[13],4.54 µM (active)
same,EC50,[14],> 150 µM (not active)
same,IC50,[15],35.7 µM (active)
same,CC50,[16],> 50 µM (active)
CC[C@H]1OC(=O)[C@H](C)[C@@H](O[C@H]2C[C@@](C)(OC)[C@@H](O)[C@H](C)O2)[C@H](C)[C@@H](O[C@@H]2O[C@H](C)C[C@H](N(C)C)[C@H]2O)[C@](C)(OC)C[C@@H](C)C(=O)[C@H](C)[C@@H](O)[C@]1(C)O [CLARITHROMYCIN],EC50,[12],< 0.06 µM (active)
same,EC50,[13],< 0.06 µM (active)
same,AC50,[1],23.1 µM (active)
CCn1cc(C(=O)O)c(=O)c2cc(F)c(N3CCNCC3)nc21 [ENOXACIN],AC50,[17],inconclusive
same,AC50,[1],1.07 µM (active)
